We go through three molecules from US5051438A, “Alkoxy-substituted dihydrobenzopyran-2-carboxylic acids and derivatives thereof, compositions and use” (G. D. Searle & Co., priority 1990, dated 1991).

The subject of assay [1] is Human neutrophils. The assay is described as follows: Modified Boyden Chamber Chemotaxis, LTB4-induced. The class given is cell-based. The note with it: 3×10^-8 M LTB4, 90 minutes, 37° C; for Relative Potency, Chemotaxis LTB4: potency relative to compound of Example 1(b), defined as 1.0. From the text: (§1) Neutrophils were purified from venous blood of normal human donors using standard techniques of dextran sedimentation, centrifugation on Ficoll-paque® (Pharmacia) or Histopaque® sterile solution (Sigma) and hypotonic lysis of erythrocytes (Boyum, A., Isolation of Leukocytes From Human Blood: Further Observations. Scand. J. Lab. Clin. Invest., 21 (Suppl. 97): 31, 1968). The purity of isolated neutrophils was >95%. […] A final cell suspension of 3.4×10^6 neutrophils/ml of HEPES-buffered Hanks' balanced salt solution (HBSS, pH 7.3) was added to the upper well (0.8 ml) of a modified Boyden chamber (blind well). […] Following a 90 minute incubation at 37° C. in 5% CO2 -95% air, cells from the lower well were lysed and nuclei counted in a Model S-Plus-IV Coulter Counter. Percent inhibition was calculated from cell counts corrected for random migration by subtracting the mean of the HBSS control. […] Pat. No. 4,889,871.

The test system of assay [2] is Human neutrophils. The assay is described as follows: Modified Boyden Chamber Chemotaxis, fMLP-induced. The class given is cell-based. As to conditions: 1.0×10^-8 M fMLP, 90 minutes, 37° C; for Relative Potency, Chemotaxis fMLP: potency relative to compound of Example 1(b), defined as 1.0.
Source text: as §1

A further assay concerns the target T1, LTB4 Receptor (Homo sapiens, UniProt Q15722).
T1 construct: Neutrophils were purified from venous blood of normal human donors; endogenous in cells; host or cells: neutrophils from venous blood of normal human donors (>95% pure)
The assay is described as follows: LTB4 Receptor Binding Assay. The note with it: potency relative to compound of Example 1(b), defined as 1.0; 0.6×10^-9 M (^3H) LTB4, human neutrophils, 0° C, 45 minutes. As to the method:
Neutrophils were purified from venous blood of normal human donors using standard techniques of dextran sedimentation, centrifugation on Ficoll-paque® (Pharmacia) or Histopaque® sterile solution (Sigma) and hypotonic lysis of erythrocytes (Boyum, A., Isolation of Leukocytes From Human Blood: Further Observations. Scand. J. Lab. Clin. Invest., 21 (Suppl. 97): 31, 1968). […] The incubation was carried out at 0° C. for 45 minutes and terminated by adding 5 ml of ice-cold HBSS followed by rapid filtration of incubation mixture under vacuum through GF/C glass fiber filters. The filters were further washed with 10 ml HBSS and radioactivity was determined. […] All data refer to specific binding. […] Pat. No. 4,889,871.

[3] abbreviates: Homo sapiens, Neutrophil, 1.5 h, value in parentheses.

T1 sequence (Q15722 whole entry): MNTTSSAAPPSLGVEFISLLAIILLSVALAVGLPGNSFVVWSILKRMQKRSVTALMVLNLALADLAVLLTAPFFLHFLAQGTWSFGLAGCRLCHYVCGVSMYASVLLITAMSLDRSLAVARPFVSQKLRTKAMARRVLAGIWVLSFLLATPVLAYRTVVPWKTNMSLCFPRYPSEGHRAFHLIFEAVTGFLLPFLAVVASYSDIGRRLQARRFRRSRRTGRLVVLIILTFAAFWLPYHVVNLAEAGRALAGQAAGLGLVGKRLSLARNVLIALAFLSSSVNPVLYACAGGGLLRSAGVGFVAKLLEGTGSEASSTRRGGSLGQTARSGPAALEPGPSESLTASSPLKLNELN

In general, IC50 refers to the midpoint of a concentration-inhibition curve. With `CCCc1c(OCCCOc2ccc(C(C)=O)c(OC)c2CCC)ccc2c1OC(C(=O)O)CC2` (centres unmarked) [Example 1(b), 7-[3-(4-acetyl-3-methoxy-2-propylphenoxy)propoxy]-3,4-dihydro-8-propyl-2H-1-benzopyran-2-carboxylic acid, reference compound], the values for the IC50 with Human neutrophils [1] (setting [3]) and in the assay on Human neutrophils [2] (setting [3]) were 1.8 µM and 5.4 µM, respectively.
Turning to `CCCc1c(OCCCOc2ccc(-c3ccon3)c(OC)c2CCC)ccc2c1OC(C(=O)O)CC2` (centres unmarked) [Example 4, 3,4-Dihydro-7-[3-[4-(3-isoxazolyl)-3-methoxy-2-propylphenoxy]propoxy]-8-propyl-2H-1-benzopyran-2-carboxylic acid], in the assay with Human neutrophils [1], the “Relative Potency, Chemotaxis LTB4” value is on record as 0.25. Also, the “Relative Potency, Chemotaxis fMLP” value in the assay with Human neutrophils [2] was 0.37. The “Relative Potency, LTB4 Receptor Binding” value at LTB4 Receptor was determined as 0.70.
On the same counts, the results for `CCCc1c(OCCCOc2ccc(-c3cc[nH]n3)c(OC)c2CCC)ccc2c1OC(C(=O)O)CC2` (centres unmarked) [Example 6, 3,4-Dihydro-7-[3-[3-methoxy-2-propyl-4-(1H-pyrazol-3-yl)phenoxy]propoxy]-8-propyl-2H-1-benzopyran-2-carboxylic acid] are 0.66, 0.35 and 0.88.
